We go through three compounds from ChEMBL document CHEMBL1123310, “Spin probes as mechanistic inhibitors and active site probes of thymidylate synthetase” (J Med Chem, 1986).

The target of assay [1] is T1, Thymidylate synthase (Lactobacillus casei, UniProt P00469).
T1 sequence (P00469 whole entry): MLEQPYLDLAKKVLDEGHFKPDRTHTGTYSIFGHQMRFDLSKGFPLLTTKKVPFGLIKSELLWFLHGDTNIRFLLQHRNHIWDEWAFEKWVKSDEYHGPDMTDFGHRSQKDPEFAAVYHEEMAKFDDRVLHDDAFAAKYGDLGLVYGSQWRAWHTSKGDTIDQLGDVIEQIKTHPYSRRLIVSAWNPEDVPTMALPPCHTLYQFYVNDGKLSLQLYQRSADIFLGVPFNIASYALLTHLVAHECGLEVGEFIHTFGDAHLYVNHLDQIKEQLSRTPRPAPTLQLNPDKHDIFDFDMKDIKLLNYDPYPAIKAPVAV
Kind of assay: In vitro inhibitory activity against Thymidylate synthetase was evaluated. Also on record: species or system Lacticaseibacillus casei.

Assay [2] addresses T2, Thymidylate synthase (Lactobacillus casei) (UniProt P00469).
T2 sequence (whole entry): T1 sequence (P00469 whole entry)
Conditions: Lacticaseibacillus casei.

In assay [3] the target is T2, Thymidylate synthase (Lactobacillus casei). The note with it: Lacticaseibacillus casei. This is another data set of the same source.
Description: Association constant (Kassoc) towards Thymidylate synthase binding site by electron spin resonance
The target of assay [4] is T1, Thymidylate synthase. Kind of assay: In vitro inhibitory activity against Thymidylate synthase was evaluated. Also on record: species or system Lacticaseibacillus casei.
Assay [5] has as its target T2, Thymidylate synthase (Lactobacillus casei). Kind of assay: Association constant (Kassoc) towards Thymidylate synthetase binding site by electron spin resonance. The note with it: Lacticaseibacillus casei.
The target is the same in assay [6]. Kind of assay: The high gain spectrum and that of thymidylate synthetase both at high and low peaks indicating its binding activity. Conditions: Lacticaseibacillus casei.

As usually defined, the Ki is the dissociation constant of the complex between target and ligand, obtained from inhibition or displacement. High values mean weaker binding, low ones tighter binding. Consider `NC/C=C/c1cn([C@H]2C[C@H](O)[C@@H](COP(=O)(O)O)O2)c(=O)[nH]c1=O`, for which the inhibition constant (Ki) on Thymidylate synthase [1] stood at 7.9 µM. This lies in the single-digit micromolar range.
In assay [2], `CC1(C)CC(NC(=O)CSc2cn([C@H]3C[C@H](O)[C@@H](CO)O3)c(=O)[nH]c2=O)CC(C)(C)N1[O]` returned a 2T11 of 61. Further, in assay [3], the K ass amounted to 240000 M⁻¹. On Thymidylate synthase [4], this compound came in with a Ki of 89 µM.
Regarding `CC1(C)C=C(C(=O)NC/C=C/c2cn([C@H]3C[C@H](O)[C@@H](CO)O3)c(=O)[nH]c2=O)C(C)(C)N1[O]`, the Ki on Thymidylate synthase [1] was 9.2 µM. In assay [5], this compound yielded a K ass of 190000 M⁻¹. In addition, the 2T11 in assay [6] was found to be 60.
